From patent US20130178472A1, “ARYLSULFONAMIDE PYRIDINE-PYRIDINONE DERIVATIVES, PREPARATION OF SAME, AND THERAPEUTIC USE THEREOF” (SANOFI, priority 2010, published 2013)

Legend:
[1] = target: T1, fusion protein Tel/PDGF-R beta (BaF3 Tel/PDGF cells) (Homo sapiens, UniProt P09619); assay: Inhibition of PDGF beta receptor tyrosine kinase activity: proliferation of BaF3 Tel/PDGF cells; assay type: cell-based, murine; conditions: 72 h incubation, viable cells by cellular ATP (CellTiter-Glo); read-out: IC50, concentration which inhibits 50% of the proliferation of the Baf3 tel/PDGF cells
T1 construct: the transmembrane and intracellular part of the PDGF-R beta receptor; N-terminal part of transcription factor Tel (ETV6, own knowledge: UniProt P41212), containing the oligomerization domain; expressed in transfected cells; host or cells: murine hematopoietic cell line BaF/3 (BaF3 Tel/PDGF); the other entry of the earlier key: ETV6 (P41212, Transcription factor ETV6)
Description: (§1) The inhibitory activity on the PDGF receptor kinases is given by the concentration which inhibits 50% of the proliferation activity of Baf3 tel/PDGF cells respectively. The inhibitory activity on p70S6 kinase is given by the concentration which inhibits 50% of the phosphorylation of the peptide substrate derived from the S6 ribosomal protein (AKRRRLSSLRA, Upstate).
Measurement of the inhibition of the PDGF beta receptor (PDGF-Rβ) tyrosine kinase activity (Baf-3 tel/PDGFRβ):
This test consists in evaluating the effects of the compounds on the PDGF beta receptor tyrosine kinase activity.
The inhibitory effect of the compounds according to the invention toward the PDGF-R receptor tyrosine kinase activity was evaluated on the hematopoietic murine cell line BaF/3 transfected with a plasmid encoding the fusion protein Tel/PDGF-R beta. This fusion protein is found in chronic myelomonocytic myeloid leukemias (CMML). It comprises the N-terminal part of the transcription factor Tel and the transmembrane and intracellular part of the PDGF-R beta receptor. This fusion protein is present in dimerized form (presence of an oligomerization domain in the N-terminal part of Tel) and therefore leads to the constitutive activity of the PDGF-R beta kinase domain. This BaF3 Tel/PDGF line has been described in the literature several times and in particular in detail in the article by CARROLL, M. et al., PNAS, 1996, 93, 14845-14850, CARROLL, M. et al., Blood 2002, 99, 14845-14850.
The BaF3 Tel/PDGF cells are washed with phosphate buffer and inoculated in 96-well plates, at the density of 5×10^4 cells/ml ([…]), in RPMI 1640 containing 10% FCS, in the presence or absence of the compounds to be tested. After 72 h of incubation, the viable cells are quantified by measuring the cellular ATP using the kit CellTiter-Glo®(Promega, Cat G7571). The cells are treated according to the instructions given by the kit supplier and the luminescence is measured with the aid of a Luminoskan (Ascent, Labsystem) with the following parameters: measurement: single; integration time: 1000 ms, lag time: 5 s.
It is thus apparent that the compounds according to the invention have an inhibitory activity on the PDGF-R beta tyrosine kinase activity. This activity is given by the concentration which inhibits 50% of the proliferation of the Baf3 tel/PDGF cells (IC50).

[2] = target: T2, active mutant recombinant S6K1 (1-421, T412E) (Homo sapiens, UniProt P23443, T412E); assay: Inhibition of p70S6 kinase activity: phosphorylation of S6 peptide substrate, [γ-33]ATP filter assay; assay type: biochemical; conditions: peptide AKRRRLSSLRA 50 μM, ATP 100 μM, 20 minutes at 30° C.; read-out: IC50, concentration which inhibits 50% of the phosphorylation of the peptide substrate derived from the S6 ribosomal protein
T2 construct: S6K1 (1-421, T412E); purchased Upstate USA, Inc. Charlottesville Va; 14-333
Description: as §1
Measurement of the inhibition of the p70S6 kinase activity:
The active mutant recombinant S6K1 (1-421, T412E) (ref. 14-333, Upstate USA, Inc. Charlottesville Va.) (specific activity 298 U/mg) is incubated (20 mU/10 μl) with 8 concentrations of inhibitors solubilized at 1 mM in DMSO in the presence of the peptide substrate obtained from the S6 ribosomal protein (AKRRRLSSLRA, Upstate) (50 μM final) and of a cold ATP mixture (100 μM) and 1 μCi/well of [γ-33]ATP (NEN, Courtaboeuf, France). The enzyme reaction is carried out in a final volume of 50 μl in a 96-well filter plate (MultiScreen TM-PH opaque plate with Phospho-Cellulose cat # MAPHNOB, Millipore) previously soaked with 100 μl 1M Tris buffer pH 7.4 by adding the reagents of the S6 Kinase Assay kit (#17-136, Upstate) in the following order:
10 μl of 5% DMSO or various inhibitors at a 5× concentration
30 μl of reaction mixture containing the ADBI buffer (#20-108 Upstate, composed of 20 mM MOPS pH 7.2, 25 mM beta-glycerol phosphate, 5 mM EGTA, 1 mM sodium orthovanadate, 1 mM dithiothreitol), S6K1 (20 mU) and 250 μM peptide substrate [AKRRRLSSLRA] in ADBI buffer (#20-122, Upstate). The reaction is started by adding 10 μl of cold ATP/^33γATP mixture (1 μCi/50 μl as 500 μM ATP in ADBI buffer, 75 mM MgCl2) and then incubated for 20 minutes at 30° C. before being stopped by adding 20 μl of 7.5% phosphoric acid. The reaction mixture is filtered by aspiration under vacuum (Vacuum manifold, Millipore), the wells are rinsed twice with 200 μl of 7.5% phosphoric acid (2 minutes) and then twice with 200 μl of distilled H2O (2 minutes). After drying the plate, 25 μl/well of scintillant (Optiphase Super Mix, Wallac) are added and the radioactivity is detected with the Micro-Beta scintillation reader (Wallac). A negative control (all the reagents without peptide substrate) is prepared in order to determine the nonspecific binding of ^33γATP to the phosphocellulose filter which is subtracted from the experimental results.
It is thus apparent that the compounds of the invention have an inhibitory activity on the p70S6 kinase activity. This activity is given by the concentration which inhibits 50% of the phosphorylation of the peptide substrate derived from the S6 ribosomal protein (AKRRRLSSLRA, Upstate).

T1 sequence (P09619 with tags, fused parts or gaps): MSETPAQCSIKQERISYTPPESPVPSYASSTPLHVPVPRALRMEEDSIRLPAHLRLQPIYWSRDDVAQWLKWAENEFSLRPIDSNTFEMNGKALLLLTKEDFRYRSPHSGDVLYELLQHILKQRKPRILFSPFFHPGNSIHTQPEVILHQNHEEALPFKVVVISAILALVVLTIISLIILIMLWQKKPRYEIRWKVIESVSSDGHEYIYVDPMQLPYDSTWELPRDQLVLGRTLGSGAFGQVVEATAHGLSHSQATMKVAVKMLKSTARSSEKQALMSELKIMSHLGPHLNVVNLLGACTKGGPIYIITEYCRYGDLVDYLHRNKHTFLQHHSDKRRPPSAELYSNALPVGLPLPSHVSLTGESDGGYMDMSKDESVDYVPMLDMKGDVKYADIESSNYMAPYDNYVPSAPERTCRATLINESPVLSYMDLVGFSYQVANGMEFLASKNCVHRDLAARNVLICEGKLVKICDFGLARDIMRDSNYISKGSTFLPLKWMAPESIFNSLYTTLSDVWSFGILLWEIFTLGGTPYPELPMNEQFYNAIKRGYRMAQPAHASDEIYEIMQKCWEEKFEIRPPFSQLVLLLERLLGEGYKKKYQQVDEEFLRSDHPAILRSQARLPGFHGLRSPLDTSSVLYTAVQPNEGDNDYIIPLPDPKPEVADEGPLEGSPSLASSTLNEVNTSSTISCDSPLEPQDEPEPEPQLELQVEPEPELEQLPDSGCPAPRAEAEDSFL
T2 sequence (P23443 1-421 T412E): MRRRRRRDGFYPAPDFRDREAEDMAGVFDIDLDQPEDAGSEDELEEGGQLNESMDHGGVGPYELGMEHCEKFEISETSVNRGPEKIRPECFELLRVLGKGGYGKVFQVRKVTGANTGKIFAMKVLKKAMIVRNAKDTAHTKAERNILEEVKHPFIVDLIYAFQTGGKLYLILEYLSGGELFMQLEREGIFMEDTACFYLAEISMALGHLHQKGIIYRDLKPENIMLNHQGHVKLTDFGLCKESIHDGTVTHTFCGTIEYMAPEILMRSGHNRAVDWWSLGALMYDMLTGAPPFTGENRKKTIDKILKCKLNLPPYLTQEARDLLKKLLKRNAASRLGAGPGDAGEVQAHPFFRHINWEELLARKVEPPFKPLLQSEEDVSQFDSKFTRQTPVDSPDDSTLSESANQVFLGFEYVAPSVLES

Structure (SMILES)	melting point [°C]	IC50 [1] [nM]	IC50 [2] [nM]
CCn1c(N)c(C(=O)NC)c(=O)c2ccc(-c3ccc(NS(=O)(=O)c4ccc(F)cc4)c(F)c3)nc21 [compound No. 24, 2-amino-1-ethyl-7-(3-fluoro-4-{[(4-fluorophenyl)sulfonyl]amino}phenyl)-N-methyl-4-oxo-1,4-dihydro-1,8-naphthyridine-3-carboxamide]	> 260	24	
CCn1c(N)c(C(=O)NC)c(=O)c2ccc(-c3ccc(NS(=O)(=O)c4ccccc4F)c(F)c3)nc21 [compound No. 20, 2-amino-1-ethyl-7-(3-fluoro-4-{[(2-fluorophenyl)sulfonyl]amino}phenyl)-N-methyl-4-oxo-1,4-dihydro-1,8-naphthyridine-3-carboxamide]	> 260	280	
CCn1c(N)c(C(=O)NC)c(=O)c2ccc(-c3ccc(NS(=O)(=O)c4cccc(Cl)c4Cl)c(F)c3)nc21 [compound No. 18, 2-amino-7-(4-{[(2,3-dichlorophenyl)sulfonyl]amino}-3-fluorophenyl)-1-ethyl-N-methyl-4-oxo-1,4-dihydro-1,8-naphthyridine-3-carboxamide]	333	12	132
CCn1c(N)c(C(=O)NC)c(=O)c2ccc(-c3ccc(NS(=O)(=O)c4cccc(Cl)c4Cl)cc3F)nc21 [compound No. 14, 2-amino-7-(4-{[(2,3-dichlorophenyl)sulfonyl]amino}-2-fluorophenyl)-1-ethyl-N-methyl-4-oxo-1,4-dihydro-1,8-naphthyridine-3-carboxamide]	340		224
CCn1c(N)c(C(=O)NC)c(=O)c2ccc(-c3ccc(NS(=O)(=O)c4cccc(Cl)c4Cl)c(Cl)c3)nc21 [compound No. 8, 2-amino-7-(3-chloro-4-{[(2,3-dichlorophenyl)sulfonyl]amino}phenyl)-1-ethyl-N-methyl-4-oxo-1,4-dihydro-1,8-naphthyridine-3-carboxamide]	311		412
CCn1c(N)c(C(=O)NC)c(=O)c2ccc(-c3ccc(NS(=O)(=O)c4cc(Cl)ccc4Cl)c(F)c3)nc21 [compound No. 9, 2-amino-7-(4-{[(2,5-dichlorophenyl)sulfonyl]amino}-3-fluorophenyl)-1-ethyl-N-methyl-4-oxo-1,4-dihydro-1,8-naphthyridine-3-carboxamide]	230		240
CCn1c(N)c(C(=O)NC)c(=O)c2ccc(-c3ccc(NS(=O)(=O)c4cccc(F)c4)c(F)c3)nc21 [compound No. 2, 2-amino-1-ethyl-7-(3-fluoro-4-{[(3-fluorophenyl)sulfonyl]amino}phenyl)-N-methyl-4-oxo-1,4-dihydro-1,8-naphthyridine-3-carboxamide]	256	36	
